How the values were obtained:
[1] = tested on: PD-L1 aAPC/CHO-K1 cells and Jurkat-PD-1-NFAT effector cells; assay: Nuclear factor of activated T-cells (NFAT) assay; assay type: cell-based; conditions: Cricetulus griseus, CHO-K1
Outline: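 CHO-K1 cells expressing PD-L1 aAPC were co-cultured with Jurkat-PD-1-NFAT effector cells in RPMI 1640 with 1% FBS and compound (0.4% DMSO; top concentration 2 μM) for 24 h at 37 °C. Bio-Glo luminescence was read, fold induction normalised to DMSO wells, and EC50 fitted from percent of control compound activity.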

[2] = biological target: PD-L1 (Homo sapiens (Human), UniProt Q9NZQ7); assay: PD-L1 whole blood internalization assay; assay type: cell-based; conditions: 24 HR, PD-L1 expression on CD14+ cells, human interferon γ
PD-L1, sequence (Q9NZQ7 19-290): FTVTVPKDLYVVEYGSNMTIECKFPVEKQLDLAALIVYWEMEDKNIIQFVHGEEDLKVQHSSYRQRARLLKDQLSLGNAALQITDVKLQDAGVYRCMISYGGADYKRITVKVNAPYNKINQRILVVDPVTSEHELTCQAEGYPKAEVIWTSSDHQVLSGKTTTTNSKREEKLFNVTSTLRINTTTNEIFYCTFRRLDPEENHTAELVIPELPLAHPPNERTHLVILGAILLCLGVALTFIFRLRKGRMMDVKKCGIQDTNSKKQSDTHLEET

[3] = tested on: U2OS/PD-L1 cells and Jurkat-PD-1-SHP cells; assay: Src homology region 2 domain-containing phosphatase (SHP) assay; assay type: cell-based; conditions: Homo sapiens, U2OS
Outline: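 U2OS/PD-L1 and Jurkat-PD-1-SHP cells (5000 each per well) were co-incubated with compound for 2 h at 37 °C in RPMI1640 with 1% FBS, 0.05% DMSO final. PathHunter chemiluminescence was read after 1 h at room temperature, and IC50 was fitted from percent of DMSO-control activity.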

[4] = biological target: PD-1/PD-L1 protein/protein interaction (recombinant human PD-L1 and human PD-1) (Homo sapiens (Human), UniProt Q9NZQ7); assay: Homogeneous Time-Resolved Fluorescence (HTRF) PD-1/PD-L1 binding assay
PD-1/PD-L1 protein/protein interaction (recombinant human PD-L1 and human PD-1), sequence (Q9NZQ7 19-238): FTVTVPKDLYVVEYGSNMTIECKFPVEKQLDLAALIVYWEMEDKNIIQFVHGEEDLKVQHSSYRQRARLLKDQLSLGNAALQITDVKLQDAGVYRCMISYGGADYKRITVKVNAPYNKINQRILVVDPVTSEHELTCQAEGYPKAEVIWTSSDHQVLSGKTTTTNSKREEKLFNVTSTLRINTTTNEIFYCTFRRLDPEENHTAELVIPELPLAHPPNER
Outline: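 Human PD-L1 (19-238, C-His; 10 nM final) and PD-1 (25-167, C-Fc; 3 nM final) preincubated 40 min with inhibitor in PBS pH 7.4, 0.05% Tween-20, 0.1% BSA, 1% DMSO, 25 °C. Eu-anti-human IgG (1 nM) and anti-His-APC (20 nM) added for 60 min; 665/620 nm ratio; IC50 from percent-control curves.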

IC50 [2] | IC50 [3] | IC50 [4] | SMILES | EC50 [1]
100 to 500 nM | ≤ 10 nM | ≤ 5 nM | Cc1c(NC(=O)c2nc3c(n2C)CCN(CCC24CCC(C(=O)O)(CC2)C4)C3)cccc1-c1cccc(NC(=O)c2nc3c(n2C)CCN(C[C@H](C)O)C3)c1C [Example 58, (S)-4-(2-(2-((3′-(5-(2-hydroxypropyl)-1-methyl-4,5,6,7-tetrahydro-1H-imidazo[4,5-c]pyridine-2-carboxamido)-2,2′-dimethyl-[1,1′-biphenyl]-3-yl)carbamoyl)-1-methyl-1,4,6,7-tetrahydro-5H-imidazo[4,5-c]pyridin-5-yl)ethyl)bicyclo[2.2.1]heptane-1-carboxylic acid] | 10 to 100 nM
10 to 100 nM | ≤ 10 nM | ≤ 5 nM | Cn1c(C(=O)Nc2cccc(-c3cccc(NC(=O)c4nc5c(n4C)CCN(CC[C@H]4CC[C@H](C(=O)O)CC4)C5)c3Cl)c2Cl)nc2c1CCN(CCC13CCC(C(=O)O)(CC1)C3)C2 [Example 62, 4-(2-(2-((3′-(5-(2-(trans-4-carboxycyclohexyl)ethyl)-1-methyl-4,5,6,7-tetrahydro-1H-imidazo[4,5-c]pyridine-2-carboxamido)-2,2′-dichloro-[1,1′-biphenyl]-3-yl)carbamoyl)-1-methyl-1,4,6,7-tetrahydro-5H-imidazo[4,5-c]pyridin-5-yl)ethyl)bicyclo[2.2.1]heptane-1-carboxylic acid] | 10 to 100 nM
10 to 100 nM | ≤ 10 nM | ≤ 5 nM | Cn1c(C(=O)Nc2cccc(-c3cccc(NC(=O)c4nc5c(n4C)CCN([C@H]4CC[C@@](C)(C(=O)O)CC4)C5)c3Cl)c2Cl)nc2c1CCN(CCC13CCC(C(=O)O)(CC1)C3)C2 [Example 65, 4-(2-(2-((3′-(5-(cis-4-carboxy-4-methylcyclohexyl)-1-methyl-4,5,6,7-tetrahydro-1H-imidazo[4,5-c]pyridine-2-carboxamido)-2,2′-dichloro-[1,1′-biphenyl]-3-yl)carbamoyl)-1-methyl-1,4,6,7-tetrahydro-5H-imidazo[4,5-c]pyridin-5-yl)ethyl)bicyclo[2.2.1]heptane-1-carboxylic Acid] | 10 to 100 nM
10 to 100 nM | ≤ 10 nM | ≤ 5 nM | Cn1c(C(=O)Nc2cccc(-c3cccc(NC(=O)c4nc5c(n4C)CCN([C@H]4CC[C@](C)(C(=O)O)CC4)C5)c3Cl)c2Cl)nc2c1CCN(CCC13CCC(C(=O)O)(CC1)C3)C2 [Example 66, 4-(2-(2-((3′-(5-(trans-4-carboxy-4-methylcyclohexyl)-1-methyl-4,5,6,7-tetrahydro-1H-imidazo[4,5-c]pyridine-2-carboxamido)-2,2′-dichloro-[1,1′-biphenyl]-3-yl)carbamoyl)-1-methyl-1,4,6,7-tetrahydro-5H-imidazo[4,5-c]pyridin-5-yl)ethyl)bicyclo[2.2.1]heptane-1-carboxylic Acid] | ≤ 10 nM

Reference: patent US10618916B2, “Heterocyclic compounds as immunomodulators” (Incyte Corporation, priority 2018, dated 2020)
